In patent US12605359B2, “Proprotein convertase subtilisin/kexin type 9 (PCSK9) inhibitor and pharmaceutical use therefor” (THE KITASATO INSTITUTE, priority 2020, dated 2026):

Key:
PCSK9 [1] = assay: In vitro PCSK9 inhibition test: Western blot of PCSK9/ProPCSK9 in culture medium and cells of HepG2 cells; assay type: cell-based, human; details: HepG2, 24 hours; for PCSK9 (in cells) / PCSK9 (in culture medium) / ProPCSK9 (in cells) / Total PCSK9 amount: percentage with respect to total amount of PCSK9 in the control; for total amount of PCSK9, dependence on the concentration added: 1.0 and 10 micro gram/mL; for total amount of PCSK9, dependence on the concentration added / amount of PCSK9 in the culture medium and the cells, as compared with the control: result in words
Method: HepG2 cells derived from human liver cancer (5×10^5 cells/mL, 0.25 mL/well) were seeded on a 48-well plate. Subject compounds: 1,11-O-o-methylbenzylidene-7-O-p-cyanobenzoyl-1,7,11-trideacetyl pyripyropene A (PRD125), 7-p-cyanobenzoyl-7-deacetyl pyripyropene A (PRD017), 7-O-p-cyanobenzoyl-1,11-di(O-isobutyryl)-1,7,11-trideacetyl pyripyropene A (PRD056), and comparative compounds: pyripyropene A (PPPA) and a known statin drug, atorvastatin (Atr), were each added to the wells at a predetermined concentration, and the cells were cultured in a serum-free medium at 37° C. for 24 hours. As a control, the cells were treated in wells in the absense of compound under similar conditions. After culturing, the culture medium and the cells were collected. PCSK9 in the culture medium and the cells was detected by Western blotting. Using an image analysis software (ImageLab), band intensity of the detected PCSK9 was quantified. The quantitative value of each band intensity was corrected based on the quantitative value of the band intensity of glyceraldehyde-3-phosphate dehydrogenase (GAPDH) that is a loading control for Western blotting. In the figure, FIG. 1A indicates the results of detecting PCSK9 and ProPCSK9 in the culture medium and the cells with PRD017 or PRD056 added, and FIG. 1B indicates the results of detecting PCSK9 and ProPCSK9 in the culture medium and the cells with PRD125, Atr, or PPPA added. In FIG. 2, FIG. 2A indicates the results with PRD017 added, FIG. 2B indicates the results with PRD056 added, and FIG. 2C indicates the results with PRD125 added, respectively. In FIG. 3, FIG. 3A indicates the results with Atr added, and FIG. 3B indicates the results with PPPA added, respectively. In the figures, the horizontal axis indicates the concentration of the compound (micro gram/mL) added, and the vertical axis indicates the total amount of PCSK9(%), respectively. The total amount of PCSK9 is a percentage with respect to the total amount of PCSK9 in the control. The values in Table 1 are percentages with respect to the total amount of PCSK9 in the control.

PCSK9 [2] = assay: In-vivo PCSK9 inhibition test in high-fat-diet-fed mice; parameters: species or system mice (C57BL/6J); details: 10 mg/kg body weight/day in HFD for 8 weeks, versus control group
Method: Female and male mice (C57BL/6J) were fed with high-fat diet (HFD) for 4 weeks. The mice were grouped into the control group, the PPPA-administered group and PRD125-administered group (N=20 for males and N=20 for females in each group). The PPPA-administered group and the PRD125-administered group were fed with HFD with each subject compound or a comparative compound added for 8 weeks. The control group was fed only with HFD for 8 weeks. The PPPA was administered at a dose of 50 mg/kg body weight/day, and the PRD125 was administered at a dose of 10 mg/kg body weight/day, respectively. After the completion of the administration period, the blood was collected and the liver was extracted under anesthesia, from the mice of each group. The amount of LDL-cholesterol and the amount of PCSK9 in the blood, and the amount of total cholesterol, the amount of cholesteryl ester, and the amount of triglyceride in the liver were measured. The averages and the standard deviations of the measured values in each group were calculated. Further, the p values for the values of the PPPA-administered group and the PRD125-administered group with respect to the value of the control group were calculated by the student t-test. […]

Compound | PCSK9 (in cells) (PCSK9 [1]; 1.0 micro gram/mL) [%] | PCSK9 (in culture medium) (PCSK9 [1]; 1.0 micro gram/mL) [%] | ProPCSK9 (in cells) (PCSK9 [1]; 1.0 micro gram/mL) [%] | Total PCSK9 amount (PCSK9 [1]; 1.0 micro gram/mL) [%] | amount of PCSK9 in the culture medium with respect to the amount of PCSK9 in the culture medium of the control (PCSK9 [1]; 10 micro gram/mL) [%] | PCSK9 (in cells) (PCSK9 [1]; 10 micro gram/mL) [%] | PCSK9 (in culture medium) (PCSK9 [1]; 10 micro gram/mL) [%] | ProPCSK9 (in cells) (PCSK9 [1]; 10 micro gram/mL) [%] | Total PCSK9 amount (PCSK9 [1]; 10 micro gram/mL) [%] | total amount of PCSK9, dependence on the concentration added (PCSK9 [1]) | amount of PCSK9 in the blood (PCSK9 [2]; HFD-fed male and female mice) | amount of triglyceride in the liver and the blood (PCSK9 [2]; HFD-fed mice) | amount of PCSK9 in the culture medium and the cells, as compared with the control (PCSK9 [1]) | amount of ProPCSK9 in the cells with respect to the amount of ProPCSK9 in the cells of the control (PCSK9 [1]; 10 micro gram/mL) [%] | amount of PCSK9 in the cells with respect to the amount of PCSK9 in the cells of the control (PCSK9 [1]; 10 micro gram/mL) [%]
Cc1ccccc1[C@@H]1OCC2(C)C3C[C@H](OC(=O)c4ccc(C#N)cc4)[C@@]4(C)Oc5cc(-c6cccnc6)oc(=O)c5[C@H](O)C4[C@@]3(C)CC[C@@H]2O1 (stereo partly shown) [PRD125, 1,11-O-o-methylbenzylidene-7-O-p-cyanobenzoyl-1,7,11-trideacetyl pyripyropene A] | 20.7 | 23.0 | 12.8 | 56.5 | 41.6 | 23.6 | 20.7 | 10.4 | 54.7 | decreased depending on the concentration added | significantly reduced | markedly reduced |  |  | 
CC(=O)OC[C@@]1(C)[C@@H]2C[C@H](OC(C)=O)[C@@]3(C)Oc4cc(-c5cccnc5)oc(=O)c4[C@H](O)[C@@H]3[C@@]2(C)CC[C@@H]1OC(C)=O [PPPA, pyripyropene A, reference compound] | 35.7 | 45.2 | 35.7 | 116.6 |  | 38.4 | 31.7 | 19.7 | 89.8 |  |  |  | no significant difference |  | 
CC(=O)OCC1(C)[C@@H](OC(C)=O)CC[C@]2(C)[C@H]3[C@@H](O)c4c(cc(-c5cccnc5)oc4=O)O[C@]3(C)[C@@H](OC(=O)c3ccc(C#N)cc3)C[C@@H]12 (stereo partly shown) [PRD017, 7-p-cyanobenzoyl-7-deacetyl pyripyropene A] | 40.3 | 28.3 | 11.7 | 80.3 | 44 | 29.4 | 22.0 | 6.6 | 58 | decreased depending on the concentration added |  |  |  | 46 | 
7-O-p-cyanobenzoyl-1,11-di(O-isobutyryl)-1,7,11-trideacetyl pyripyropene A [PRD056] | 27.2 | 21.1 | 8.1 | 56.4 | 30 | 34.5 | 15.2 | 6.4 | 56.1 | decreased depending on the concentration added |  |  |  | 44.8 | 
CC(C)c1c(C(=O)Nc2ccccc2)c(-c2ccccc2)c(-c2ccc(F)cc2)n1CC[C@@H](O)C[C@@H](O)CC(=O)O [Atr, atorvastatin, reference compound] | 49.4 | 129.3 | 90.0 | 268.7 | 273.8 | 63.2 | 136.1 | 97.6 | 296.8 |  |  |  | rather increased | 682.5 | 175.6
